The results in this text go back to US7923465B2, “Cannabinoid receptor ligands, pharmaceutical compositions containing them, and process for their preparation” (priority 2005, dated 2011).

Where two headings read alike, the source gives them in different places.

For one data set, the target named is CB1 (Rattus norvegicus, UniProt P20272). Put plainly: Rat CB1 receptor binding using brain membrane, [3H]SR141716A displacement (Protocol I). Particulars: 1 h. Further details: CB1 receptor present in a rat brain membrane preparation; from tissue; host or cells: rat brain membrane; inhibition: dose or concentration left out as unconfirmed. The protocol: I. In Vitro Protocol for Rat CB1 Receptor Binding Using Brain Membrane
In this assay, [^3H]SR141716A (5-(4-chlorophenyl)-1-(2,4-dichlorophenyl)-4-methyl-N-(1-piperidyl)pyrazole-3-carboxamide) was used to bind the CB1 receptor present in a rat brain membrane preparation which can be displaced by unlabeled ligands having affinity to the CB1 receptor.
The assay was performed according to the modified method of Thomas et al., 1998 (JPET 285: 285-292). The total reaction mixture ([…]) contained Tris-BSA buffer (50 mM Tris, pH 7.4 with 1.5% BSA) or unlabeled SR141716A […] or test samples […], [^3H] SR141716A (2 nM) and […] of rat brain membrane. The non-specific binding was defined by […] of SR141716A. The assay mixture was incubated at 37° C. for 1 hour. The reaction was then stopped by rapid filtration under vacuum using Whatman GF/B-96 micro filter plate. A scintillation cocktail was added and radioactive counts were measured using a Topcount beta scintillation counter.
The standard and test sample dilutions were made in an assay buffer containing either ethanol or DMSO at a final concentration of 1%.
The percent (%) displacement by a test ligand was calculated by comparing the specific bound values.

The next data set addresses hCB2 (Homo sapiens, UniProt P34972). The experiment in a line: In vitro binding assay using hCB2-CHO membranes, [3H]-CP-55,940 displacement (Protocol IV). More on the design: expressed in transfected cells; host or cells: CHO (hCB2-CHO, generated in-house). The note with it: 1 h; hCB2-CHO membranes, [3H]-CP-55,940 displacement; read-out: % Displacement Protocol IV. In a few lines:
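Compounds were tested at a single 300 nM final concentration for displacing 0.75 nM [3H]-CP-55,940 from hCB2-CHO membranes (1 h, 30 °C, 50 mM Tris pH 7.4, 5 mM MgCl2, 1 mM EDTA, 0.1% BSA). Filter-bound radioactivity was counted, with 0.5 μM unlabelled CP-55,940 for nonspecific binding; results are % displacement.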

The mark [1] stands for this setting: rat brain membrane, [3H]SR141716A displacement, read-out: % Displacement Protocol I.

hCB2, sequence (P34972 whole entry): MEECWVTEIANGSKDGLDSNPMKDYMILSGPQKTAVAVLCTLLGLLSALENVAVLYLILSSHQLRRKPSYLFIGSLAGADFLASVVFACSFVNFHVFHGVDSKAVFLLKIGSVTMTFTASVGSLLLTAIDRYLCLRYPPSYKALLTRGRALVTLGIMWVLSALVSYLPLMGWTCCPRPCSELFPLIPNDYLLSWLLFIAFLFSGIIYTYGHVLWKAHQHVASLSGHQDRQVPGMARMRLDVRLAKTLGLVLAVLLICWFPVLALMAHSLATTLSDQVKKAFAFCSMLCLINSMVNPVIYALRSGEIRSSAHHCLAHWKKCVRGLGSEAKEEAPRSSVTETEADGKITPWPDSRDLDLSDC
CB1, sequence (P20272 whole entry): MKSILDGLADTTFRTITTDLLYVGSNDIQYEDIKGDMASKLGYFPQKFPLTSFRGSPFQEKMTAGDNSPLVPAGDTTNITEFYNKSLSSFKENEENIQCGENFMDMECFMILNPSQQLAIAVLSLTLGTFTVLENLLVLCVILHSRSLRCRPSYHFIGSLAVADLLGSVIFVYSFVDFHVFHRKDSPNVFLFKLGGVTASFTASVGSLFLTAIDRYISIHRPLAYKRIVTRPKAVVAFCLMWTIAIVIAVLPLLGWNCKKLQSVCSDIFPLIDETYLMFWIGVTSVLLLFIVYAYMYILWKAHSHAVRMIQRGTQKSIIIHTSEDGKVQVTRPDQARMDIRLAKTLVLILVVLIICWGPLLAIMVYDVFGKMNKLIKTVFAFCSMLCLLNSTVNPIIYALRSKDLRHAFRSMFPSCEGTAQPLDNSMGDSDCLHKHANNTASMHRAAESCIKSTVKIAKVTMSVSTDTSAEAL

The molecule `O=C(NN1CCCCC1)c1nn(-c2ccc(F)cc2F)c2c1C1CCC2C1` (stereo not drawn) [Example 289, N(3)-Piperidino-1-(2,4-difluorophenyl)-4,5,6,7-tetrahydro-1H-4,7-methano-indazole-3-carboxamide] returned a melting point of 143 °C. Also, on CB1 (setting [1]), the inhibition was found to be 71.3%.
As to `O=C(NCc1ccc(Cl)cc1)c1nn(-c2ccc(Cl)cc2Cl)c2c1C1CCC2C1` (stereo not drawn) [Example 250, N(3)-(4-Chlorobenzyl)-1-(2,4-dichlorophenyl)-4,5,6,7-tetrahydro-1H-4,7-methano-indazole-3-carboxamide], the melting point is 139 to 142 °C. Further, the inhibition at CB1 (setting [1]) was 27.1%. The inhibition at 0.3 µM on hCB2 was 27.9%.
Taken in the same sequence, the figures for `O=C(NNc1ccc(Cl)c(Cl)c1)c1nn(-c2ccc(Cl)cc2Cl)c2c1C1CCC2C1` (stereo not drawn) [Example 262, N(3)-[(3,4-Dichlorophenyl)amino]-1-(2,4-dichlorophenyl)-4,5,6,7-tetrahydro-1H-4,7-methano-indazole-3-carboxamide] were 176 to 179 °C, -1.6% and 32.6%.
`O=C(Nc1ccccc1)c1nn(-c2ccc(Cl)cc2Cl)c2c1C1CCC2C1` (stereo not drawn) [Example 243, N(3)-Phenyl-1-(2,4-dichlorophenyl)-4,5,6,7-tetrahydro-1H-4,7-methano-indazole-3-carboxamide] displayed a melting point of 66 to 68 °C. Besides, the inhibition on CB1 (setting [1]) stood at 23.5%.
For `COc1ccc(-n2nc(C(=O)NCc3ccccc3Cl)c3c2C2CC4CC(CC3C4)C2)cc1` [Example 164, N7-(2-Chlorobenzyl)-5-(4-methoxyphenyl)-5,6-diazatetracyclo[7.3.1.1^3,11.0^4,8]tetradeca-4(8),6-diene-7-carboxamide], the melting point is 178 °C. The inhibition on CB1 (setting [1]) amounted to 8.2%. Moreover, the inhibition at 0.3 µM on hCB2 is 13.2%.
Taken in the same sequence, the figures for `O=C(Nc1ccccc1)c1nn(-c2ccc(Cl)cc2)c2c1C1CCC2C1` (stereo not drawn) [Example 214, N(3)-Phenyl-1-(4-chlorophenyl)-4,5,6,7-tetrahydro-1H-4,7-methano-indazole-3-carboxamide] were 137 to 140 °C, 10.1% and 41.3%.
`O=C(NNc1ccccc1)c1nn(-c2ccc(F)cc2)c2c1C1CCC2C1` (stereo not drawn) [Example 284, N(3)-Phenylamino-1-(4-fluorophenyl)-4,5,6,7-tetrahydro-1H-4,7-methano-indazole-3-carboxamide] showed a melting point of 163 °C. Besides, the inhibition on CB1 (setting [1]) came out at 13.7%. In addition, the inhibition at 0.3 µM at hCB2 was found to be 0.9%.
The corresponding values for `O=C(NNc1ccc(Cl)cn1)c1nn(-c2ccc(Cl)cc2)c2c1C1CC3CC(C1)CC2C3` [Example 135, N(7)-(5-Chloro-2-pyridylamino)-5-(4-chlorophenyl)-5,6-diazatetracyclo[7.3.1.1^3,11.0^4,8]tetradeca-4(8),6-diene-7-carboxamide] are 130 to 135 °C, 20.5% and 6.48%.
The corresponding values for `O=C(NNc1ccc(Cl)cc1)c1nn(-c2ccc(Cl)cc2Cl)c2c1C1CCC2C1` (stereo not drawn) [Example 259, N(3)-[(4-Chlorophenyl)amino]-1-(2,4-dichlorophenyl)-4,5,6,7-tetrahydro-1H-4,7-methano-indazole-3-carboxamide] are 141 to 144 °C, 18.3% and 33.3%.
Regarding `O=C(NCc1ccccc1)c1nn(-c2ccccc2)c2c1C1CCC2C1` (stereo not drawn) [Example 203, N(3)-Benzyl-1-phenyl-4,5,6,7-tetrahydro-1H-4,7-methano-indazole-3-carboxamide], the melting point came to 115 °C. For the same molecule, the inhibition on CB1 (setting [1]) was -10.4%.
For `COc1ccc(-n2nc(C(=O)NNc3ccc(Cl)cc3Cl)c3c2C2CC4CC(CC3C4)C2)cc1` [Example 165, N(7)-(2,4-Dichlorophenylamino)-5-(4-methoxyphenyl)-5,6-diazatetracyclo[7.3.1.1^3,11.0^4,8]tetradeca-4(8),6-diene-7-carboxamide], the melting point was determined as 199 °C. Besides, at CB1 (setting [1]), the inhibition was determined as 14.2%. Besides, at hCB2, the inhibition at 0.3 µM stood at 45.3%.
For the molecule `O=C(NNc1ccc(F)cc1)c1nn(-c2ccc(Cl)cc2)c2c1C1CCC2C1` (stereo not drawn) [Example 234, N(3)-[(4-Fluorophenyl)amino]-1-(4-chlorophenyl)-4,5,6,7-tetrahydro-1H-4,7-methano-indazole-3-carboxamide], the melting point stood at 212 °C. The inhibition on CB1 (setting [1]) was 36.3%. Also, the inhibition at 0.3 µM on hCB2 amounted to 10.6%.
The corresponding values for `O=C(NN1CCCCC1)c1nn(-c2ccc(Cl)cc2)c2c1C1CCC2C1` (stereo not drawn) [Example 209, N(3)-Piperidino-1-(4-chlorophenyl)-4,5,6,7-tetrahydro-1H-4,7-methano-indazole-3-carboxamide] are 78 to 81 °C, 23.5% and 50.5%.
The corresponding values for `O=C(Nc1ccc(Cl)cc1)c1nn(-c2ccc(Cl)cc2)c2c1C1CCC2C1` (stereo not drawn) [Example 216, N(3)-(4-Chlorophenyl)-1-(4-chlorophenyl)-4,5,6,7-tetrahydro-1H-4,7-methano-indazole-3-carboxamide] are 182 to 184 °C, 32.2% and 20.7%.
On to `O=C(NNc1ccc(Cl)cc1Cl)c1nn(-c2ccccc2Cl)c2c1C1CC3CC(C1)CC2C3` [Example 181, N(7)-(2,4-Dichlorophenylamino)-5-(2-chlorophenyl)-5,6-diazatetracyclo[7.3.1.1^3,11.0^4,8]tetradeca-4(8),6-diene-7-carboxamide], for which the melting point lay within 233 to 240 °C. At CB1 (setting [1]), the inhibition came out at 16.4%.
In the case of `O=C(NC1CCCCC1)c1nn(-c2ccc(F)cc2)c2c1C1CCC2C1` (stereo not drawn) [Example 279, N(3)-Cyclohexyl-1-(4-fluorophenyl)-4,5,6,7-tetrahydro-1H-4,7-methano-indazole-3-carboxamide], the melting point was determined as 127 °C. The inhibition at CB1 (read-out: % Displacement Protocol I, rat brain membrane, [3H]SR141716A displacement) amounted to 62%.
Consider `O=C(NCc1ccccc1)c1nn(-c2ccc(F)cc2)c2c1C1CCC2C1` (stereo not drawn) [Example 280, N(3)-Benzyl-1-(4-fluorophenyl)-4,5,6,7-tetrahydro-1H-4,7-methano-indazole-3-carboxamide], for which the melting point came to 104 °C. In addition, the inhibition on CB1 (setting [1]) is 33%.
Taken in the same sequence, the figures for `O=C(NNc1cccc(F)c1)c1nn(-c2ccc(Cl)cc2)c2c1C1CC3CC(C1)CC2C3` [Example 133, N(7)-(3-fluorophenylamino)-5-(4-chlorophenyl)-5,6-diazatetracyclo[7.3.1.1^3,11.0^4,8]tetradeca-4(8),6-diene-7-carboxamide] were 203 °C and 59.7%.
The corresponding values for `COc1ccccc1NC(=O)c1nn(-c2ccc(Cl)cc2)c2c1C1CCC2C1` (stereo not drawn) [Example 218, N(3)-(2-Methoxyphenyl)-1-(4-chlorophenyl)-4,5,6,7-tetrahydro-1H-4,7-methano-indazole-3-carboxamide] are 149 to 151 °C and 29.9%.
Taken in the same sequence, the figures for `O=C(NNc1ccccc1)c1nn(-c2ccc(F)cc2F)c2c1C1CCC2C1` (stereo not drawn) [Example 285, N(3)-Phenylamino-1-(2,4-difluorophenyl)-4,5,6,7-tetrahydro-1H-4,7-methano-indazole-3-carboxamide] were 161 °C and 61.9%.
For the molecule `O=C(NNc1ccc(F)cc1)c1nn(-c2ccc(Cl)cc2)c2c1C1CC3CC(C1)CC2C3` [Example 130, N(7)-(4-Fluorophenylamino)-5-(4-chlorophenyl)-5,6-diazatetracyclo[7.3.1.1^3,11.0^4,8]tetradeca-4(8),6-diene-7-carboxamide], the melting point was 125 to 127 °C. For the same molecule, at CB1 (setting [1]), the inhibition is 60.6%.
The corresponding values for `O=C(NCc1ccccc1Cl)c1nn(-c2ccc(Cl)cc2Cl)c2c1C1CCC2C1` (stereo not drawn) [Example 249, N(3)-(2-Chlorobenzyl)-1-(2,4-dichlorophenyl)-4,5,6,7-tetrahydro-1H-4,7-methano-indazole-3-carboxamide] are 117 to 120 °C and 47.7%.
In the case of `O=C(NCc1ccc(Br)cc1)c1nn(-c2ccc(Cl)cc2)c2c1C1CCC2C1` (stereo not drawn) [Example 225, N(3)-(4-Bromobenzyl)-1-(4-chlorophenyl)-4,5,6,7-tetrahydro-1H-4,7-methano-indazole-3-carboxamide], the melting point fell in the range of 181 to 183 °C. Also, the inhibition on CB1 (setting [1]) turned out to be 31.1%.
